Calls of active or inactive are those of the source.
What was measured:
[1] = molecular target: E3 ubiquitin-protein ligase Mdm2 (Homo sapiens, UniProt Q00987); test: MDM2-luc reporter signal enhancers, multi-concentration potency testing, MDM2 ubiquitin-protein ligase inhibitor program, whole-cell format, luminescence detection, 384-well microplate (AID 1394); format: functional;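 also: MDM2 E3 inhibitors raise luminescence so EC50 is for signal enhancement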
[2] = molecular target: Glyceraldehyde-3-phosphate dehydrogenase (Homo sapiens, UniProt P04406)
Bcl-2-related protein A1 [3] = molecular target: T1, Bcl-2-related protein A1 (Mus musculus, UniProt Q07440); test: small-molecule antagonists of Bfl-1/BH3 interaction – biochemical, TR-FRET, mouse Bfl-1, confirmation (AID 621);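 also: TR-FRET binding of GST-Bfl-1 to FITC-labelled Bid peptide via terbium antibody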
T1 sequence (Q07440 whole entry): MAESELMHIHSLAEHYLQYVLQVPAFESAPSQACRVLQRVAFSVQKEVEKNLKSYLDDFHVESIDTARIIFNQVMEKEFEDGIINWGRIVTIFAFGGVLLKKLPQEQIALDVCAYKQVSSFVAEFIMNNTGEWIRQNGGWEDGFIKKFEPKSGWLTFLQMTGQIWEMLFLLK

Bcl-2-related protein A1 [4] = molecular target: T1, Bcl-2-related protein A1; test: Bfl-1 binding inhibitors, SAR follow-up, biochemical, fluorescence polarization (AID 1070)
[5] = molecular target: Sphingosine 1-phosphate receptor 2 (Homo sapiens, UniProt O95136); test: Dose Response Cell Based Assay for Antagonists of the S1P2 Receptor. [Related pubchem assays: 856, 736 ]; format: functional
[6] = molecular target: T2, Heat shock factor protein 1 (Mus musculus, UniProt P38532); test: decrease of HSF1-responsive luciferase luminescence – cell-based, NIH3T3, dose retest, confirmation (AID 2382); format: functional;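 also: NIH3T3 fibroblasts with HSF1-driven luciferase reporter stressed by proteasome inhibitor MG132; luminescence from HSF1-driven luciferase expression after 8 hours of MG132 stress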
T2 sequence (P38532 whole entry): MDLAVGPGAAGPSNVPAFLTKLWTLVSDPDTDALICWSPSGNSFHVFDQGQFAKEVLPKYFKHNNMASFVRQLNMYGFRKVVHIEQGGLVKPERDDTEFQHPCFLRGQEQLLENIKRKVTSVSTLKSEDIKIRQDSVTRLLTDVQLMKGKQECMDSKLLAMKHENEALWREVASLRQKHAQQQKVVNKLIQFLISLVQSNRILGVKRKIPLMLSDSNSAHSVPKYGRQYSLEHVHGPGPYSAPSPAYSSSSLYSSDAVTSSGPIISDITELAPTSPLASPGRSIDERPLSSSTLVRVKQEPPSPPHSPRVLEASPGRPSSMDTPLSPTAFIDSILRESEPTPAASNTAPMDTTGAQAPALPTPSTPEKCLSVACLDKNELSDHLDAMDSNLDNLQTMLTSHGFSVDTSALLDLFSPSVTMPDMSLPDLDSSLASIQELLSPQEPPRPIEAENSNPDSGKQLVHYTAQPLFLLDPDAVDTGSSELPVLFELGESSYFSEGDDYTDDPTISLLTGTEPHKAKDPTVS

[7] = HPDE-C7 pancreatic duct cell viability loss – fluorescence, HTS (AID 430); format: functional, cell-based; conditions: Homo sapiens
[8] = viability loss of HPDE-C7K cells – cell-based, fluorescence, HTS, primary screen (AID 431); format: functional; conditions: Homo sapiens
CAAX prenyl protease 2 = molecular target: T3, CAAX prenyl protease 2 (Saccharomyces cerevisiae S288c, UniProt Q03530); format: biochemical
T3 sequence (Q03530 whole entry): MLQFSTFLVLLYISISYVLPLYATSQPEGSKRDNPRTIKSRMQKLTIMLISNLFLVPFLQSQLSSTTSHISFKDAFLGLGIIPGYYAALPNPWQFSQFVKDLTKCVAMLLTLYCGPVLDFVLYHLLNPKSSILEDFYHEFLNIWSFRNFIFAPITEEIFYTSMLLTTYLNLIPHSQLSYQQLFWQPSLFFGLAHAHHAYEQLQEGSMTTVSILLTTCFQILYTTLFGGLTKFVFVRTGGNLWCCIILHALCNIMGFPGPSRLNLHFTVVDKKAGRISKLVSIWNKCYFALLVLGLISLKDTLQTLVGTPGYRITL

[9] = reduction of Shn3 3'UTR-driven luciferase in osteoblasts – cell-based, Clone20 osteoblasts, firefly luciferase, cherry-picked, dose response (AID 624132); format: functional;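 also: firefly luciferase luminescence from reporter carrying the Shn3 3'UTR in osteoblasts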
[10] = loss of viability in HepG2 cells – cell-based, CellTiter-Glo, cherry-picked, cytotoxicity control for Shn3 inhibitor project, dose response (AID 624134); format: functional
[11] = non-specific 3'UTR reporter inhibition in Clone20-Shn3RL – cell-based, Renilla luciferase, cherry-picked, counter-screen for Shn3 inhibitor project, dose response (AID 624133); format: functional
[12] = Trypanosoma cruzi growth suppression in host cells – NIH3T3 host cells, beta-gal luminescence, confirmation (AID 2044); format: functional, cell-based;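 also: intracellular parasites grown in NIH/3T3 mouse fibroblasts as host cells; luminescent beta-galactosidase reporter signal from transgenic T. cruzi replicating inside host cells; inhibitors lower the luminescence signal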
[13] = NIH3T3 cell viability loss – ATP luminescence, mouse fibroblasts, counter-screen, dose response (AID 2010); format: functional, cell-based;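 also: cells exposed to compound for about 90 hours before reading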
[14] = Luminescence Cell-Based Dose Confirmation HTS to Identify Activators of 5'UTR Stem-Loop Driven Alpha-Synuclein mRNA Translation in H4 Neuroglioblastoma Cells. [Related pubchem assays: 1829 (Project Summary), 1814 (Primary HTS)]; format: functional
[15] = Luminescence Cell-Based Dose Response HTS to Identify Activators of Luciferase Translation or Activity in H4 […] Cells. [Related pubchem assays: 1829 (Project Summary), 1814 (Primary HTS)]; format: functional
H4 = test: Luminescence Cell-Based Dose Response HTS to Identify Activators of 5'UTR Stem-Loop Driven Prion Protein mRNA Translation in H4 Neuroglioblastoma Cells. [Related pubchem assays: 1829 (Project Summary), 1814 (Primary HTS)]; format: functional; conditions: Homo sapiens
[16] = molecular target: Voltage-gated inwardly rectifying potassium channel KCNH2 (Homo sapiens, UniProt Q12809); test: concentration-dependent hERG rescue from blockers – cell-based, thallium flux, dose response (AID 2121); format: ADME
Aminopeptidase N = molecular target: T4, Aminopeptidase N (Plasmodium falciparum FcB1/Columbia, UniProt O96935); test: malaria alanyl aminopeptidase activity blockers – biochemical, fluorogenic H-Leu-NHMec substrate, 1536-well (AID 1445); set-up: species or system Plasmodium falciparum 3D7, 3D7
T4 sequence (O96935 whole entry): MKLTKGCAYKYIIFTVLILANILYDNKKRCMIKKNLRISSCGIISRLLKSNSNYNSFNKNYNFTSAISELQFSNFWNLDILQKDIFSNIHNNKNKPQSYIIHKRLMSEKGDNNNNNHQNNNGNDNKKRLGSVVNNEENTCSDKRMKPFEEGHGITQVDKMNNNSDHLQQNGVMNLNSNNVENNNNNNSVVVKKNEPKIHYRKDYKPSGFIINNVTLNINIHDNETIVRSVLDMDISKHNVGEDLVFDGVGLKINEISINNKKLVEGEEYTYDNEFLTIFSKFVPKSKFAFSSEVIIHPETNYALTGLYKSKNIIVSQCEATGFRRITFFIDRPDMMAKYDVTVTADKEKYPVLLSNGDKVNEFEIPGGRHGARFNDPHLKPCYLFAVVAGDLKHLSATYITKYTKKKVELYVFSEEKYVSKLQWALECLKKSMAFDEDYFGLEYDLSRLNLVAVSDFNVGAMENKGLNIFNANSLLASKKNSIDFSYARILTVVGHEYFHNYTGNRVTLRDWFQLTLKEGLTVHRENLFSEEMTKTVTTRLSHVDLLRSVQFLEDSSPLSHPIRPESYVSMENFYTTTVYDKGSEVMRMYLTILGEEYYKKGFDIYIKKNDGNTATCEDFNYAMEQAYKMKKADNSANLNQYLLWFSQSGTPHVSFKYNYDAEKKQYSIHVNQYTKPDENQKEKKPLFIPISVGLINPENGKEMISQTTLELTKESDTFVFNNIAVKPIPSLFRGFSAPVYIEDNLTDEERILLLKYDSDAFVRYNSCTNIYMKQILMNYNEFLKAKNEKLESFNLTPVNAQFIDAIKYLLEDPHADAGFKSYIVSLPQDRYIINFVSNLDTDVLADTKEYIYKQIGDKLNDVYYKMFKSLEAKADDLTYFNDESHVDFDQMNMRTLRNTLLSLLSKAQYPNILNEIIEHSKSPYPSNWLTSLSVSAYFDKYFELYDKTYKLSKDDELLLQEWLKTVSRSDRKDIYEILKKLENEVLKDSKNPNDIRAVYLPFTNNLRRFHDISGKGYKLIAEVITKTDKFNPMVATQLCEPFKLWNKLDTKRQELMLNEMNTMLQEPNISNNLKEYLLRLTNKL

[17] = test system: Streptococcus sp. 'group A'; test: Streptococcus pyogenes SK(-)GAS viability under kanamycin – luminescence, BacTiterGlo, confirmation, counter-screen for streptokinase expression inhibitor project, dose response (AID 1900); format: functional, organism-based
Streptokinase A = molecular target: T5, Streptokinase A (Streptococcus pyogenes serotype M1, UniProt P10520); test: viability-normalized secreted streptokinase activity reduction – plasminogen activation absorbance, OD405, dose response (AID 1914); format: functional, Streptococcus pyogenes M1 GAS;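 also: secreted streptokinase activity via plasminogen activation per viability signal from cell pellet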
T5 sequence (P10520 whole entry): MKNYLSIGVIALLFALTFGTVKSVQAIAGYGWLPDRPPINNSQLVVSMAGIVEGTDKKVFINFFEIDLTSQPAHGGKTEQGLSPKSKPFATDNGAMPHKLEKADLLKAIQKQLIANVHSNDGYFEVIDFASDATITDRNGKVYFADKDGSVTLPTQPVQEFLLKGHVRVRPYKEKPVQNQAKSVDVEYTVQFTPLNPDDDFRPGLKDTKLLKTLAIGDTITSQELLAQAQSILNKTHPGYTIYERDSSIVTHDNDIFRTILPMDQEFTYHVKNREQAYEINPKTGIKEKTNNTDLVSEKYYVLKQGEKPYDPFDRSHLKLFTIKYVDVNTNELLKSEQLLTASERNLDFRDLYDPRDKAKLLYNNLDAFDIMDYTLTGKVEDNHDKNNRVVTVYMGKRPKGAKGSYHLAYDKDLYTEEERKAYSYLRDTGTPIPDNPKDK

[18] = molecular target: Bifunctional protein GlmU (Mycobacterium tuberculosis, UniProt P9WMN3); test: Inhibitors of Mycobacterial Glucosamine-1-phosphate acetyl transferase (GlmU). Secondary screen.; set-up: species or system Mycobacterium tuberculosis H37Rv
[19] = molecular target: Induced myeloid leukemia cell differentiation protein Mcl-1 (Homo sapiens, UniProt Q07820); format: functional
Streptococcus = test: GAS UMAA2166 growth inhibition – luminescence, BacTiterGlo, counter-screen for streptokinase expression inhibitor project, dose response (AID 1915); format: functional, organism-based;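 also: potency for reduction of bacterial viability or growth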
[20] = molecular target: T6, Probable nicotinate-nucleotide adenylyltransferase (Staphylococcus aureus (strain N315), UniProt P65502); format: functional, Staphylococcus aureus subsp. aureus N315;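 as to IC50 Mean: confirmatory dose-response retesting of NadD inhibitor hits first found in an ultra-high-throughput screen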
[21] = molecular target: T6, Probable nicotinate-nucleotide adenylyltransferase; format: functional, Staphylococcus aureus subsp. aureus N315; conditions: read-out: IC50_Mean
[22] = molecular target: Heat shock protein HSP 90-alpha (Homo sapiens, UniProt P07900); format: functional, organism-based
Ephrin type-A receptor 4 = Ephrin type-A receptor 4 (Mus musculus, UniProt Q03137); test: EphA4 ligand-binding antagonists – biochemical, colorimetric, mouse EphA4, primary screen (AID 689); format: functional
Chain of Ephrin type-A receptor 4 (Q03137 whole entry): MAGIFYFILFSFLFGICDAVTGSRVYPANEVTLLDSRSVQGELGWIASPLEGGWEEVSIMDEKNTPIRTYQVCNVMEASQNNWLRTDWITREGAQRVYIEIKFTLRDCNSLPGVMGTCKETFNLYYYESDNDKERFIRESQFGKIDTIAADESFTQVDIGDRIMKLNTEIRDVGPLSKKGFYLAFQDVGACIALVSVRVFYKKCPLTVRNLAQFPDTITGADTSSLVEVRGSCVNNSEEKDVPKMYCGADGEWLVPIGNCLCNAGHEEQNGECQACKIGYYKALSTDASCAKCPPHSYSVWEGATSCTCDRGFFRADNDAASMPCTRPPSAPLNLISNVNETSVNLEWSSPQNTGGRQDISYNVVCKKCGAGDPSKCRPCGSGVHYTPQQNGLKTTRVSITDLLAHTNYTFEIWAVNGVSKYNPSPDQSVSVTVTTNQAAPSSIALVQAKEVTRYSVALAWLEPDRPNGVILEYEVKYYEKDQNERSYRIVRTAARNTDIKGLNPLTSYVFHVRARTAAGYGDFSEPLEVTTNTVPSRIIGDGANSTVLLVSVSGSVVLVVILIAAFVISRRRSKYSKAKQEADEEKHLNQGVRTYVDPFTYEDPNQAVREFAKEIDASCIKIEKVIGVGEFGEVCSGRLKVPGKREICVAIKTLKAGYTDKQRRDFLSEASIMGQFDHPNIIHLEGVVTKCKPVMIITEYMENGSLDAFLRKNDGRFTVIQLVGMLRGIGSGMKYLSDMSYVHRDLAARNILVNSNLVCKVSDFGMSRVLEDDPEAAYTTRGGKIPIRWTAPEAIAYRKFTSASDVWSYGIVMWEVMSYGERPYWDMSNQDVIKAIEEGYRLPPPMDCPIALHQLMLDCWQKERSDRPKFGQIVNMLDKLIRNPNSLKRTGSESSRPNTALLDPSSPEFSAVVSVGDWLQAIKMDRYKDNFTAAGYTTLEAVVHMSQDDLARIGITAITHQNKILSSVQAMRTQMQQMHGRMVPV

Chain of E3 ubiquitin-protein ligase Mdm2 (Q00987 whole entry): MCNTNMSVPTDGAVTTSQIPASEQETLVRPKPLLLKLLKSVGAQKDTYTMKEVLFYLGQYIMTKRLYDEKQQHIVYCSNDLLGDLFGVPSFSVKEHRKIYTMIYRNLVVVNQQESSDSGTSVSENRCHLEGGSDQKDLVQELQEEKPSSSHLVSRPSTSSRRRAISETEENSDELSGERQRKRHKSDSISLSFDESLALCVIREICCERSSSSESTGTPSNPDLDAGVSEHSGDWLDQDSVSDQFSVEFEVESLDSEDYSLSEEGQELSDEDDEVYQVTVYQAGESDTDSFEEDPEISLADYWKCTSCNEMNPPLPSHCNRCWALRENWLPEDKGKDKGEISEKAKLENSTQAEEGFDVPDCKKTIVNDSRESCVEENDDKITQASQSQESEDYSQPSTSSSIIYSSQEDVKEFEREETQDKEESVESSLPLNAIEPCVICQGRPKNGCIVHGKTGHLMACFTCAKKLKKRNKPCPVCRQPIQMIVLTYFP
Chain of Voltage-gated inwardly rectifying potassium channel KCNH2 (Q12809 whole entry): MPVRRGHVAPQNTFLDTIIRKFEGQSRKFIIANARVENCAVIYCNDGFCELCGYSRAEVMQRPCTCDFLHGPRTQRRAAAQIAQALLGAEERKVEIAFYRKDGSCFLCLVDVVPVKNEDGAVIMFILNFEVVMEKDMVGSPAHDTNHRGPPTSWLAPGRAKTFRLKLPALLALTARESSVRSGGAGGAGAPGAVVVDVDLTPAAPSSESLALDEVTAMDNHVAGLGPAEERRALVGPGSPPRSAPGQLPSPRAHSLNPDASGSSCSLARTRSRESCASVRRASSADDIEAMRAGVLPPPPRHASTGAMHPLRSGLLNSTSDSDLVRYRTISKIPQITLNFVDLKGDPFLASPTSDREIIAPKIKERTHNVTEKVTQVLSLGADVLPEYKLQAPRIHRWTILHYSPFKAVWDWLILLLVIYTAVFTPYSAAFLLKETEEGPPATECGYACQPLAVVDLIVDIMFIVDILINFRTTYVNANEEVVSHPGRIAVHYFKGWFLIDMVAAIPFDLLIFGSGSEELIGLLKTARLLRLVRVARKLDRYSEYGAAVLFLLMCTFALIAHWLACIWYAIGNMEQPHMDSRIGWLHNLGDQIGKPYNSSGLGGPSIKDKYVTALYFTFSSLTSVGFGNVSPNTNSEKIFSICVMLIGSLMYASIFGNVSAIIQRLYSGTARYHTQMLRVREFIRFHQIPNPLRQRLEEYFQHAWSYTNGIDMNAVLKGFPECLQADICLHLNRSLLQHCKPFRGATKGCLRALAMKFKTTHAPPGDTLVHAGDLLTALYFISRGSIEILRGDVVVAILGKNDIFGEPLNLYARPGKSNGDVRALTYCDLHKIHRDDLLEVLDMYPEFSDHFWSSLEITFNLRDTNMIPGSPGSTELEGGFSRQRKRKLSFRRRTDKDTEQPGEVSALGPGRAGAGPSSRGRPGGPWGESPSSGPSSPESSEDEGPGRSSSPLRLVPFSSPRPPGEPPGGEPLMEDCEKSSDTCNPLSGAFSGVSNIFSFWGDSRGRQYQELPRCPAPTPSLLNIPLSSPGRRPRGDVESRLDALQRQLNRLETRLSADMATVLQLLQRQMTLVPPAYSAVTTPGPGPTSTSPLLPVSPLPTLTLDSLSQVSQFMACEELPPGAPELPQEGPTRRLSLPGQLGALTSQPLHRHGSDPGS
T6 sequence (P65502 whole entry): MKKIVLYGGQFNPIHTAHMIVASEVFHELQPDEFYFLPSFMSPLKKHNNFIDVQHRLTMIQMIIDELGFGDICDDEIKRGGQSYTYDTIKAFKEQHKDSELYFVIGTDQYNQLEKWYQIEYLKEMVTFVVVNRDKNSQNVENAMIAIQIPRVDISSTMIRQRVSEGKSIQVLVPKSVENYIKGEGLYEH
Chain of Glyceraldehyde-3-phosphate dehydrogenase (P04406 whole entry): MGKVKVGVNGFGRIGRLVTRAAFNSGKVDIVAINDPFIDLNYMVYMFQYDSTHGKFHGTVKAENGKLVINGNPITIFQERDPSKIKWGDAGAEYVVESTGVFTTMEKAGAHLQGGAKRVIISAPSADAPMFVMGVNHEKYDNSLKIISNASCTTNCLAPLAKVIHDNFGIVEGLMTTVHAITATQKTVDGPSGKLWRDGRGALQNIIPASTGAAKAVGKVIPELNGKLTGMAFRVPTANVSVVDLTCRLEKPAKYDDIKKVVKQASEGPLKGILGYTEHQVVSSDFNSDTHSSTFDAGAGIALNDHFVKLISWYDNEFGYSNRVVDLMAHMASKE
Chain of Sphingosine 1-phosphate receptor 2 (O95136 whole entry): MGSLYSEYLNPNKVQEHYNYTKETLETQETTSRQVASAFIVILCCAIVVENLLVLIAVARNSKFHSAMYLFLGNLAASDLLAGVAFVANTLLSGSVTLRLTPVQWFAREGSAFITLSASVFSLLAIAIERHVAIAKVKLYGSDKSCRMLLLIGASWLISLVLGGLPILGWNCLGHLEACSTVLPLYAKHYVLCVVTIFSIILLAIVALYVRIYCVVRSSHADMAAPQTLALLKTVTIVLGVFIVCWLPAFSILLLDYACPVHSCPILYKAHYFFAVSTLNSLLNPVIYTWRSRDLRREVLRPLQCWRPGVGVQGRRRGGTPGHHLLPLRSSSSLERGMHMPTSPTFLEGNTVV
Chain of Induced myeloid leukemia cell differentiation protein Mcl-1 (Q07820 whole entry): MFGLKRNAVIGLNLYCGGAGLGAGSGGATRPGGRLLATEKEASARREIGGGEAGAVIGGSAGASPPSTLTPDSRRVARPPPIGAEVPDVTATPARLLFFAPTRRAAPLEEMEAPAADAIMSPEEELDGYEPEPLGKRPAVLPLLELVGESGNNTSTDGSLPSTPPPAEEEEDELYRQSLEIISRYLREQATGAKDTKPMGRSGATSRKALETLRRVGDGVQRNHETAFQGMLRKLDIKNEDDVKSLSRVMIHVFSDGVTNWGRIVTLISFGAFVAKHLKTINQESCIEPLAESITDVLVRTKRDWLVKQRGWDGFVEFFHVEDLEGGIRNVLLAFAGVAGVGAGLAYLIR
Chain of Bifunctional protein GlmU (P9WMN3 whole entry): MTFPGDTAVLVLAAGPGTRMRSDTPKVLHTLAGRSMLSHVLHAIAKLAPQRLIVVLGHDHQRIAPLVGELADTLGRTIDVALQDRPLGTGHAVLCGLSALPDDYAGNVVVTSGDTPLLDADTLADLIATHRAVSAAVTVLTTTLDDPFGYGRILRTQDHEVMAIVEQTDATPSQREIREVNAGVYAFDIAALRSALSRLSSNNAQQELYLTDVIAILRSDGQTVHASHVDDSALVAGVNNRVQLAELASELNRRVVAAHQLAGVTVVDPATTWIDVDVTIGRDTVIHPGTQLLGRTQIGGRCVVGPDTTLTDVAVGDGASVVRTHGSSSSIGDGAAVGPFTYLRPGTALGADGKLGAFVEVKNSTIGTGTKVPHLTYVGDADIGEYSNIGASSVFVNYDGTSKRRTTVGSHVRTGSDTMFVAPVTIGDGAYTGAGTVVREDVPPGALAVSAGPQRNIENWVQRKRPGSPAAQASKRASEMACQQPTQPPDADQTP

In the case of `COc1ccc(C2C(C(=O)N3CCCCC3)CCC(=O)N2c2cc(OC)c(OC)c(OC)c2)cc1` (stereo not given), the EC50 [1] was 47.1 µM (not active).

In the case of `NCCN1CCN(C2=C(Cl)C(=O)N(c3ccc(Cl)c(Cl)c3)C2=O)CC1`, the IC50 [2] was > 100 µM (not active), the IC50 (Bcl-2-related protein A1 [3]) was > 100 µM (not active) and the IC50 (Bcl-2-related protein A1 [4]) was > 100 µM (not active).

In the case of `O=C1C(Cl)=C(N2CCN(c3ccccc3F)CC2)C(=O)N1c1ccc(Cl)c(Cl)c1`, the IC50 [2] was > 100 µM (not active), the IC50 (Bcl-2-related protein A1 [3]) was > 100 µM (not active) and the IC50 (Bcl-2-related protein A1 [4]) was > 100 µM (not active).

In the case of `CCCC(=O)N1CCN(c2ccc(NC(=O)c3cc4ccccc4o3)cc2Cl)CC1`, the IC50 [5] was 4.67 µM (active), the EC50 [6] was 7.51 µM (active) and the EC50 [7] was 7.87 µM (active). The EC50 [8] was 7.44 µM (active), the AC50 (CAAX prenyl protease 2) was 11.5 µM (active) and the AC50 [9] was 4.1 µM (active). The AC50 [10] was 7.37 µM (active) and the AC50 [11] was 8.96 µM (active).

For `COc1ccc(N2CCN(C(CNC(=O)Oc3ccccc3)c3cccnc3)CC2)cc1` (stereo not given), the EC50 [12] was < 0.1 µM (active), the EC50 [13] was > 30 µM (not active) and the EC50 (cells) was 0.087 µM (active).

For `COc1cccc([C@@H]2Oc3ccc(OC)cc3C(=O)[C@H]2OC(=O)NCc2ccc3c(c2)OCO3)c1`, the EC50 [14] was 16.3 µM (active), the EC50 [15] was 16.6 µM (active) and the EC50 (H4) was 46.4 µM (active). For the same compound, the EC50 [16] was 4.06 µM (active).

For `COc1ccc(C(=O)OC2CCN(C)CC2)cc1`, the EC50 [12] was < 0.1 µM (active), the EC50 [13] was > 60 µM (not active) and the EC50 (cells) was 0.077 µM (active).

In the case of `O=C(N/N=C/c1ccc(-c2ccc(Cl)c(C(=O)O)c2)o1)c1cc2c(ccc3ccccc32)o1`, the IC50 (Aminopeptidase N) was 9.45 µM (active), the EC50 [17] was 3.13 µM (active) and the EC50 (Streptokinase A) was > 150 µM (not active). The IC50 [18] was 58.8 µM (active), the IC50 [19] was 1.55 µM (active) and the EC50 (Streptococcus) was 66.6 µM (inconclusive). The IC50 [20] was 3.91 µM (active) and the IC50 [21] was 10.7 µM (active).

With `O=C(CCSc1ccc(Br)cc1)c1ccc(O)cc1` the EC50 [16] was 1.17 µM (active) and the AC50 [22] was 1.81 µM (active).

In the case of `Cc1cc(C)nc(S/C=C/C(=O)c2ccccc2)n1`, the EC50 [1] was 1.32 µM (active), the AC50 [9] was 1.72 µM (active) and the AC50 [10] was 42.4 µM (active). The AC50 [11] was 9.3 µM (active).

In the case of `CC1CCCN(c2nc3ccccc3nc2C(C#N)C(=O)OC2CCCCC2)C1` (stereo not given), the IC50 (Ephrin type-A receptor 4) was 9.81 µM (active).

— ChEMBL document CHEMBL1201862, “PubChem BioAssay data set” (2004)
